Data reported in the NIST ThermoML archive (doi:10.1016/j.jct.2016.07.012).
± gives the expanded uncertainty stated by the source.

Conditions: Crystal; Adiabatic calorimetry

For CCCCn1cc[n+](C)c1.F[P-](F)(F)(F)(F)F [1-butyl-3-methylimidazolium hexafluorophosphate], the Triple point temperature was 283.55 ± 0.05 K.
